In patent publication US20140357512A1, “HISTONE DEACETYLASE (HDAC) BIOMARKERS IN MULTIPLE MYELOMA” (priority 2013, published 2014):

Test system: human myeloma cell line MM.1S
Assay: SILAC acetylated-lysine peptide profiling, HDAC inhibitor vs DMSO (light/heavy ratio)
Type: cell-based
Source text: An embodiment of the invention comprises utilizing the SILAC method in order to quantitate changes in protein expression between two or more populations of cells. The SILAC method is a technique based on mass spectrometry that detects differences in protein abundance among samples using non-radioactive isotopic labeling. The SILAC method is known in the art, and described in detail in Ong et al., “Stable Isotope Labeling by Amino Acids in Cell Culture, SILAC, as a Simple and Accurate Approach to Expression Proteomics”, Molecular & Cellular Proteomics, vol. 1, pp. 376-386 (2002), which is incorporated herein by reference in its entirety.
Briefly, the SILAC method involves growing two populations of cells in cell culture. The first population of cells is grown in growth media containing normal amino acids (“normal media”). The second population of cells is grown in media lacking a standard essential amino acid (such as lysine), but is then supplemented with a non-radioactive, isotopically labeled form of that essential amino acid (such as lysine labeled with ^13C atoms, rather than normal ^12C atoms), which is called “heavy media”. When the two populations of cells are each growing in the medium, they incorporate the amino acids into all of their proteins. The growth of cells maintained in the heavy media is no different from that in normal media. All peptides containing the heavy amino acids are heavier than their normal counterparts. The cells from each of the two populations of cells are lysed. The lysates from each of the two cell populations are then combined. The combined cell lysates are then analyzed by mass spectrometry. Pairs of chemically identical peptides of different stable isotope composition can be differentiated in a mass spectrometer due to their difference in mass. The ratio of peak intensities in the mass spectrum for such peptide pairs reflects the abundance ratio for the two proteins.
This example describes SILAC studies that were performed to compare the effects of three different HDAC inhibitors (Compound A, Compound B, and tubastatin A) to a control on a human multiple myeloma cell line. The HDAC inhibitors were also compared amongst themselves to determine differences in their effects.
A human myeloma cell line MM.1S was grown using either ^12C (light) or ^13C (heavy) lysine containing culture medium. The “heavy” cells were treated with DMSO as the control, and the “light” cells were treated with a single HDAC inhibitor at 37° C. for 6 hours. The heavy and light cells were lysed, and the lysates were mixed in 1:1 ratio and digested with the protease trypsin. The acetylated lysine containing peptides (due to the action of the HDAC inhibitor) in the digested peptide pool were captured by a non-specific anti-acetylated lysine antibody cocktail (the antibodies identify both light and heavy acetylated peptides), and subjected to mass spectrometry analysis in order to identify thousands of individual peptides.
Thousands of peptides were identified in pairs (^12C and ^13C) due to their known mass differences. The amino acid sequence and quantitative ratio (Light/Heavy) of a given peptide in two differentially treated cell lysates were then determined and annotated with their possible protein (gene) sources.
As stated above, three HDAC inhibitors (Compound A, Compound B, and Tubastatin A) were used. Thus, the SILAC method was performed three times, with a different HDAC inhibitor compared to a control each time. Accordingly, there are three pairs of quantitative data in the table below, i.e., Compound A:DMSO, Compound B:DMSO, and Tubastatin A:DMSO. A cut-off of 1.30 fold of change (increase or decrease) was then used to determine “changed” or “+” in the table, and any peptides with a fold of change less than 1.3 fold were determined to be “unchanged” or “0” in the table. Those peptides that were not identified were marked as “NA” in the table. […]

Compound: O=C(CCCCCCNC(=O)c1cnc(N(c2ccccc2)c2ccccc2)nc1)NO [Compound A, 2-(diphenylamino)-N-(7-(hydroxyamino)-7-oxoheptyl)pyrimidine-5-carboxamide]
- L/H ratio of acetylated peptide SELK(ac)HAK (SEQ ID NO: 696, Isoform Long of Delta-1-pyrroline-5-carboxylate synthase [68], ALDH18A1): 0.66 log 2
- L/H ratio of acetylated peptide SCGLNPK(ac)LEK (SEQ ID NO: 697, Isoform 5 of Transcriptional regulator ATRX [468], ATRX): 0.66 log 2
- L/H ratio of acetylated peptide EVK(ac)VLLDQLR (SEQ ID NO: 698, Isoform 1 of Adipocyte plasma membrane-associated protein [250], C20orf3): 0.67 log 2
- L/H ratio of acetylated peptide KAVTK(ac)VQK (SEQ ID NO: 699, Histone H2B type 2-F [21], HIST2H2BF): 0.67 log 2
- L/H ratio of acetylated peptide ILQK(ac)QGFK (SEQ ID NO: 700, Dihydrolipoyl dehydrogenase mitochondrial [267], DLD): 0.67 log 2
- L/H ratio of acetylated peptide NK(ac)FGAPQK (SEQ ID NO: 701, Trifunctional enzyme subunit alpha mitochondrial [353], HADHA): 0.68 log 2
- L/H ratio of acetylated peptide VTAVHK(ac)ANIMK (SEQ ID NO: 702, Isocitrate dehydrogenase [NAD] subunit gamma mitochondrial [221], IDH3G): 0.68 log 2
- L/H ratio of acetylated peptide ACPEK(ac)HFAFK (SEQ ID NO: 703, Protein FAM3C [67], FAM3C): 0.68 log 2
- L/H ratio of acetylated peptide KPTLDK(ac)PSPETFVK (SEQ ID NO: 704, Estradiol 17-beta-dehydrogenase 12 [249], HSD17B12): 0.68 log 2
- L/H ratio of acetylated peptide QLAQK(ac)YNCDK (SEQ ID NO: 705, Ubiquitin-60S ribosomal protein L40 [88], UBA52): 0.68 log 2
- L/H ratio of acetylated peptide […](ac)EDVK (SEQ ID NO: 706, Isoform 1 of ATP synthase subunit d mitochondrial [95], ATP5H): 0.68 log 2
- L/H ratio of acetylated peptide […](ac)TLSK (SEQ ID NO: 707, Isoform 2 of PDZ domain-containing protein 2 [1726], PDZD2): 0.69 log 2
- L/H ratio of acetylated peptide ADK(ac)LAEEHSS (SEQ ID NO: 708, ATP synthase subunit beta mitochondrial [522], ATP5B): 0.70 log 2
- L/H ratio of acetylated peptide DFGSFDK(ac)FK (SEQ ID NO: 709, Superoxide dismutase [Mn] mitochondrial [130], SOD2): 0.70 log 2
- L/H ratio of acetylated peptide KIDK(ac)YTEVLK (SEQ ID NO: 710, 60S ribosomal protein L13a [191], SNORD32A, RPL13A, SNORD33, SNORD34): 0.70 log 2
- L/H ratio of acetylated peptide CSK(ac)LPSSTK(ac)SGWPR (SEQ ID NO: 711, cDNA FLJ75110 highly similar to Homo sapiens PHD finger protein 15 (PHF15) mRNA 3[2:38], PHF15): 0.70 log 2
- L/H ratio of acetylated peptide KAINK(ac)AQK (SEQ ID NO: 712, Histone H2B type 1-M [21], HIST1H2BM): 0.70 log 2
- L/H ratio of acetylated peptide EFPEK(ac)QELHR (SEQ ID NO: 713, Protein zer-1 homolog [584], ZER1): 0.70 log 2
- L/H ratio of acetylated peptide TDLEK(ac)[…] (SEQ ID NO: 714, Putative annexin A2-like protein [157], ANXA2P2): 0.71 log 2
- L/H ratio of acetylated peptide […](ac)ASMK (SEQ ID NO: 715, Putative annexin A2-like protein [115], ANXA2P2): 0.72 log 2
- L/H ratio of acetylated peptide LTCYLCK(ac)QK (SEQ ID NO: 716, Isoform 1 of Bromodomain-containing protein 1 [33]1, BRD1): 0.72 log 2
- L/H ratio of acetylated peptide AINK(ac)AQK(ac)K (SEQ ID NO: 717, Histone H2B type 1-M [21:24], HIST1H2BM): 0.72 log 2
- L/H ratio of acetylated peptide KGIEK(ac)NLGIGK (SEQ ID NO: 718, Malate dehydrogenase mitochondrial [301], MDH2): 0.72 log 2
- L/H ratio of acetylated peptide DNGK(ac)[…] (SEQ ID NO: 719, ATP synthase subunit alpha mitochondrial [305], ATP5A1): 0.72 log 2
- L/H ratio of acetylated peptide QLYNIYAK(ac)HTK (SEQ ID NO: 720, Putative ATP-dependent Clp protease proteolytic subunit mitochondrial [211], CLPP): 0.72 log 2
- L/H ratio of acetylated peptide GKGDK(ac)AQIEK (SEQ ID NO: 721, 60 kDa heat shock protein mitochondrial [364], HSPD1): 0.73 log 2
- L/H ratio of acetylated peptide K(ac)FLVHNVK (SEQ ID NO: 722, 60S ribosomal protein L32 [76], RPL32): 0.73 log 2
- L/H ratio of acetylated peptide GLIK(ac)LVSK (SEQ ID NO: 723, 40S ribosomal protein S25 [98], RPS25): 0.73 log 2
- L/H ratio of acetylated peptide IGFAEK(ac)VAAK (SEQ ID NO: 724, Isoform Mitochondrial of Fumarate hydratase mitochondrial [292], FH): 0.73 log 2
- L/H ratio of acetylated peptide (ac)AEK(ac)FDCHYCR (SEQ ID NO: 725, four and a half LIM domains protein 1 isoform 5 [20], FHL1): 0.73 log 2
- L/H ratio of acetylated peptide […](ac)VIPK (SEQ ID NO: 726, Endoplasmic reticulum resident protein 29 [48], ERP29): 0.73 log 2
- L/H ratio of acetylated peptide […](ac)SVAR (SEQ ID NO: 727, 60S ribosomal protein L7a [245], RPL7A, SNORD24): 0.73 log 2
- L/H ratio of acetylated peptide TITMK(ac)QLLR (SEQ ID NO: 728, Branched-chain-amino-acid aminotransferase [281], BCAT2): 0.73 log 2
- L/H ratio of acetylated peptide SK(ac)FVLVK (SEQ ID NO: 729, Endoplasmic reticulum resident protein 29 [54], ERP29): 0.74 log 2
- L/H ratio of acetylated peptide LVEDTK(ac)HRPK (SEQ ID NO: 730, 39S ribosomal protein L9 mitochondrial [87], MRPL9): 0.74 log 2
